Experimental data as given in patent US7868006B2, “Heterocyclic substituted piperazines with CXCR3 antagonist activity” (Schering Corporation, priority 2005, dated 2011).

target: T1, human CXCR3 (N-delta 4) (Homo sapiens, UniProt P49682); assay: Human CXCR3 (N-delta 4) Scintillation Proximity Assay (SPA), [125I] IP-10 binding; settings: IC50 rating; Ba/F3-hCXCR3 (N-delta 4) membranes, 25 pM [125I] IP-10; read-out: IC50
T1 construct: CD8 leader (N); Flag tag (N); expressed in transfected cells; host or cells: mouse pro-B Ba/F3 cells, stably transfected with pME18Sneo-hCXCR3 (N-delta 4); membrane preparation
T1 sequence (P49682 5-368 limits assumed): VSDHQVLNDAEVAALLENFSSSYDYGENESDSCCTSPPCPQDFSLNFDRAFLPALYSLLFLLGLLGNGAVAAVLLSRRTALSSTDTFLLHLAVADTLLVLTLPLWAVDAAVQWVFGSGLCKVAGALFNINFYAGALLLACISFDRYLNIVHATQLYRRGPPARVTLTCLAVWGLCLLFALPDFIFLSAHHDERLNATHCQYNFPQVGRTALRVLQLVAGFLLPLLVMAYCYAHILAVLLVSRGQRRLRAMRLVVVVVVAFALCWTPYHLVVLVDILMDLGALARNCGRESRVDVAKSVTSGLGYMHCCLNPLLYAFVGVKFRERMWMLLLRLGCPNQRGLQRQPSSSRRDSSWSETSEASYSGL
Excerpt: The inventive compounds can readily be evaluated to determine activity at The CXCR3 receptors by known methods, such as, for example, Development of Human CXCR3 (N-delta 4) Binding Assay.
Cloning and Expression of Human CXCR3 (N-delta 4):
The DNA encoding human CXCR3 was cloned by PCR using human genomic DNA (Promega, Madison, Wis.) as a template. The PCR primers were designed based on the published sequence of human orphan receptor GPR9 (1) with incorporated restriction sites, a Kozak consensus sequence, CD8 leader and Flag tag. The PCR product was subcloned into the mammalian expression vector pME18Sneo, a derivative of the SR-alpha expression vector (designated as pME18Sneo-hCXCR3 (N-delta 4).
IL-3-dependent mouse pro-B cells Ba/F3 were transfected by electroporation in 0.4 ml Dulbecco's PBS containing 4×10^6 cells with 20 μg of pME18Sneo-hCXCR3 (N-delta 4) plasmid DNA. Cells were pulsed at 400 Volts, 100 OHMs, 960 μFd. The transfected cells were under selection with 1 mg/ml G418 (Life Technologies, Gaithersburg, Md.). G418-resistant Ba/F3 clones were screened for CXCR3 expression by specific binding of [^125I] IP-10 (NEN Life Science Products, Boston, Mass.).
Preparation of Ba/F3-hCXCR3 (N-delta 4) Membranes:
Ba/F3 cells expressing human CXCR3 (N-delta 4) were pelleted and resuspended in the lysis buffer containing 10 mM HEPES, pH 7.5 and Complete® protease inhibitors (1 tablet per 100 ml) (Boehringer Mannheim, Indianapolis, Ind.) at a cell density of 20×10^6 cells per ml. After 5 minutes incubation on ice, cells were transferred to 4639 cell disruption bomb (Parr Instrument, Moline, Ill.) and applied with 1,500 psi of nitrogen for 30 minutes on ice. Large cellular debris was removed by centrifugation at 1,000×g. Cell membrane in the supernatant was sedimented at 100,000×g. The membrane was resuspended in the lysis buffer supplemented with 10% sucrose and stored at −80° C. Total protein concentration of the membrane was determined by BCA method from Pierce (Rockford, Ill.).
Human CXCR3 (N-delta 4) Scintillation Proximity Assay (SPA):
For each assay point, 2 μg of membrane was preincubated for 1 hr with 300 μg wheat germ agglutinin (WGA) coated SPA beads (Amersham, Arlington Heights, Ill.) in the binding buffer (50 mM HEPES, 1 mM CaCl2, 5 mM MgCl2, 125 mM NaCl, 0.002% NaN3, 1.0% BSA) at room temperature. The beads were spun down, washed once, resuspended in the binding buffer and transferred to a 96-well Isoplate (Wallac, Gaithersburg, Md.). 25 pM of [^125I] IP-10 with tested compounds in a series of titration were added to start the reaction. After 3 hr reaction at room temperature, the amount of [^125I] IP-10 bound to the SPA beads was determined with a Wallac 1450 Microbeta counter.
The Ki values for the various example compounds of the present invention are given in the afore-mentioned Table 1. From these values, it would be apparent to the skilled artisan that the compounds of the invention have excellent utility CXCR3 antagonists.

IC50 | SMILES
< 25 nM | CCNc1nnc(-c2cnc(N3C[C@H](CC)N(C4CCN(C(=O)c5ccc(Cl)nc5N)CC4)C[C@H]3C)c(C(F)(F)F)n2)o1 [Compound 98]
< 25 nM | CCNc1nnc(-c2cnc(N3C[C@H](CC)N(C4CCN(C(=O)c5ccc(Cl)nc5N)CC4)C[C@H]3C)c(Cl)n2)o1 [Compound 100]
< 25 nM | CCNc1nnc(-c2cnc(N3C[C@H](CC)N(C4CCN(C(=O)c5ccc(Cl)cc5)CC4)C[C@H]3C)c(Cl)n2)o1 [Compound 101]
< 25 nM | CC[C@H]1CN(c2ncc(-c3nnc(N)o3)nc2C)[C@H](C)CN1C1CCN(C(=O)c2ccc(Cl)cc2)CC1 [Compound 102]
< 25 nM | CCNc1nnc(-c2cnc(N3CCN(C4CCN(C(=O)c5ccc(Cl)nc5N)CC4)[C@@H](CC)C3)c(C(F)(F)F)n2)o1 [Compound 103]
< 25 nM | CC[C@H]1CN(c2ncc(-c3ncc[nH]3)nc2C)CCN1C1CCN(Cc2ccc(F)cc2)CC1 [Compound 104]
< 25 nM | CC[C@H]1CN(c2ncc(-c3nnc[nH]3)nc2C)CCN1C1CCN(Cc2ccc(F)cc2)CC1 [Compound 105]
< 25 nM | CC[C@H]1CN(c2ncc(-c3nc[nH]n3)nc2C)[C@H](C)CN1C1CCN(Cc2ccc(F)cc2)CC1 [Compound 106]
< 25 nM | CC[C@H]1CN(c2ncc(-c3ncc[nH]3)nc2C)CCN1C1CCN(Cc2ccc(Cl)cc2)CC1 [Compound 107]
< 25 nM | CC[C@H]1CN(c2ncc(-c3ncc[nH]3)nc2C)CCN1C1CCN(Cc2ccc(F)c(F)c2)CC1 [Compound 108]
< 25 nM | CC[C@H]1CN(c2ncc(-c3nnc[nH]3)nc2C)CCN1C1CCN(Cc2ccc(F)c(F)c2)CC1 [Compound 109]
< 25 nM | CC[C@H]1CN(c2ncc(-c3nc[nH]n3)nc2C)CCN1C1CCN(C(=O)c2ccc(C)c(F)c2)CC1 [Compound 110]
< 25 nM | CC[C@H]1CN(c2ncc(-c3ncc[nH]3)nc2C)CCN1C1CCN(C(=O)c2ccc(Cl)cc2)CC1 [Compound 111]
< 25 nM | CC[C@H]1CN(c2ncc(-c3nc[nH]n3)nc2C)[C@H](C)CN1C1CCN(Cc2ccc(Cl)cc2)CC1 [Compound 112]
< 25 nM | CC[C@H]1CN(c2ncc(-c3nc[nH]n3)nc2C)CCN1C1CCN(C(=O)c2ccc(F)c(F)c2)CC1 [Compound 113]
< 25 nM | CC[C@H]1CN(c2ncc(C3=NNCN3)nc2C)[C@H](C)CN1C1CCN(Cc2ccc(F)c(F)c2)CC1 [Compound 114]
< 25 nM | CCNc1nnc(-c2cnc(N3CCN(C4CCN(Cc5ccc(C)cc5)CC4)[C@@H](CC)C3)c(C)n2)o1 [Compound 115]
< 25 nM | CC[C@H]1CN(c2ncc(C3=NCCN3)nc2C)[C@H](C)CN1C1CCN(C(=O)c2ccc(Cl)cc2)CC1 [Compound 116]
< 25 nM | CCNc1nnc(-c2cnc(N3CCN(C4CCN(Cc5ccc(F)cc5)CC4)[C@@H](CC)C3)c(C)n2)o1 [Compound 117]
25 to 100 nM | CC[C@H]1CN(c2ncc(-c3nnc[nH]3)nc2C)[C@H](C)CN1C1CCN(C(=O)c2ccc(Cl)cc2)CC1 [Compound 118]
< 25 nM | CC[C@H]1CN(c2ncc(-c3ncc[nH]3)nc2C)CCN1C1CCN(C(=O)c2ccc(Cl)nc2N)CC1 [Compound 119]
< 25 nM | CC[C@H]1CN(c2ncc(-c3nnc(N)[nH]3)nc2C)CCN1C1CCN(C(=O)c2ccc(Cl)cc2)CC1 [Compound 120]
25 to 100 nM | CC[C@H]1CN(c2ncc(-c3nc[nH]n3)nc2C)[C@H](C)CN1C1CCN(C(=O)c2ccc(F)c(F)c2)CC1 [Compound 122]
< 25 nM | CC[C@H]1CN(c2ncc(-c3nnc(N)o3)nc2C)[C@H](C)CN1C1CCN(Cc2ccc(Cl)cc2)CC1 [Compound 123]

IC50 | SMILES
< 25 nM | CC[C@H]1CN(c2ncc(-c3ncc[nH]3)nc2C)CCN1C1CCN(C(=O)c2ccc(Cl)c(F)c2)CC1 [Compound 124]
< 25 nM | CC[C@H]1CN(c2ncc(-c3nc[nH]n3)nc2C)CCN1C1CCN(C(=O)c2ccc(Cl)c(F)c2)CC1 [Compound 125]
< 25 nM | CCNc1nnc(-c2cnc(N3CCN(C4CCN(C(=O)c5ccc(C)cc5)CC4)[C@@H](CC)C3)c(C)n2)o1 [Compound 126]
< 25 nM | CCNc1nnc(-c2cnc(N3CCN(C4CCN(Cc5ccc(C)c(F)c5)CC4)[C@@H](CC)C3)c(C)n2)o1 [Compound 127]
< 25 nM | CCNc1nnc(-c2cnc(N3C[C@H](CC)N(C4CCN(Cc5ccc(F)cc5)CC4)C[C@H]3C)c(C)n2)o1 [Compound 128]
< 25 nM | CCc1nnc(-c2cnc(N3CCN(C4CCN(C(=O)c5ccc(Cl)cc5)CC4)[C@@H](CC)C3)c(C)n2)[nH]1 [Compound 129]
< 25 nM | CC[C@H]1CN(c2ncc(-c3ncc[nH]3)nc2C)[C@H](C)CN1C1CCN(C(=O)c2ccc(Cl)nc2N)CC1 [Compound 130]
< 25 nM | CC[C@H]1CN(c2ncc(-c3nc[nH]n3)nc2C)[C@H](C)CN1C1CCN(C(=O)c2ccc(Cl)nc2N)CC1 [Compound 131]
< 25 nM | CCNc1nnc(-c2cnc(N3CCN(C4CCN(Cc5ccc(Cl)cc5)CC4)[C@@H](CC)C3)c(C)n2)o1 [Compound 132]
< 25 nM | CC[C@H]1CN(c2ncc(-c3nc[nH]n3)nc2C)[C@H](C)CN1C1CCN(C(CO)c2ccc(Cl)cc2)CC1 (stereo partly drawn) [Compound 133]
< 25 nM | CC[C@H]1CN(c2ncc(-c3nc[nH]n3)nc2C)[C@H](C)CN1C1CCN(C(=O)c2ccc(Cl)c(F)c2)CC1 [Compound 134]
< 25 nM | CC[C@H]1CN(c2ncc(-c3ncc[nH]3)nc2C)CCN1C1CCN(Cc2ccc(OC(F)(F)F)cc2)CC1 [Compound 135]
< 25 nM | CCNc1nnc(-c2cnc(N3C[C@H](CC)N(C4CCN(Cc5ccc(O)cc5)CC4)C[C@H]3C)c(C)n2)o1 [Compound 136]
25 to 100 nM | CC[C@H]1CN(c2ncc(-c3nnc(C)o3)nc2F)CCN1C1CCN(C(=O)c2ccc(Cl)nc2N)CC1 [Compound 137]
25 to 100 nM | CC[C@H]1CN(c2ncc(-c3nc[nH]n3)nc2C)CCN1C1CCN(C(=O)c2cc(F)c(F)cc2Cl)CC1 [Compound 138]
25 to 100 nM | CCNc1nnc(-c2cnc(N3CCN(C4CCN(C(=O)c5ccc(CC)cc5)CC4)[C@@H](CC)C3)c(C)n2)o1 [Compound 139]
< 25 nM | CC[C@H]1CN(c2ncc(-c3nnc(C4CC4)[nH]3)nc2C)CCN1C1CCN(C(=O)c2ccc(Cl)cc2)CC1 [Compound 140]
25 to 100 nM | CC[C@H]1CN(c2ncc(-c3nnc(C(C)C)[nH]3)nc2C)CCN1C1CCN(C(=O)c2ccc(Cl)cc2)CC1 [Compound 141]
< 25 nM | CCNc1nnc(-c2cnc(N3CCN(C4CCN(C(=O)c5ccc(Cl)cc5)CC4)[C@@H](CC)C3)c(C)n2)o1 [Compound 142]
< 25 nM | CC[C@H]1CN(c2ncc(-c3nnc(NC)o3)nc2C)[C@H](C)CN1C1CCN(C(=O)c2ccc(Cl)cc2)CC1 [Compound 143]
< 25 nM | CCNc1nnc(-c2cnc(N3CCN(C4CCN(C(=O)c5ccc(F)c(F)c5)CC4)[C@@H](CC)C3)c(C)n2)o1 [Compound 144]
25 to 100 nM | CCNc1nnc(-c2cnc(N3C[C@H](CC)N(C4CCN(C(=O)c5ccc(O)cc5)CC4)C[C@H]3C)c(C)n2)o1 [Compound 145]
< 25 nM | CC[C@H]1CN(c2ncc(-c3nc4ccccc4[nH]3)nc2C)CCN1C1CCN(C(=O)c2ccc(Cl)cc2)CC1 [Compound 146]
25 to 100 nM | CC[C@H]1CN(c2ncc(-c3nc[nH]n3)nc2C)CCN1C1CCN(C(=O)c2ccc(C(F)(F)F)nc2N)CC1 [Compound 147]
